In PubChem BioAssay (NCI):
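Exposure lasted 48 hours, with cells grown in 96-well plates and compounds tested at five concentrations. Definition used: TGI = concentration required for complete inhibition of growth.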

Key:
Experiment in all cases: NCI-60 cell line screen, 48 h
HT29 colon = system: HT29 colon
MDA-MB-231 breast = system: MDA-MB-231 breast
A498 renal = system: A498 renal
OVCAR-3 ovarian = system: OVCAR-3 ovarian
HOP-92 NSCLC = system: HOP-92 NSCLC
786-0 renal = system: 786-0 renal
SF-539 CNS = system: SF-539 CNS
HCC-2998 colon = system: HCC-2998 colon
MDA-N = system: MDA-N
HL-60(TB) leukemia = system: HL-60(TB) leukemia
UO-31 renal = system: UO-31 renal
NCI-H522 lung = system: NCI-H522 lung
PC-3 prostate = system: PC-3 prostate
SF-268 CNS = system: SF-268 CNS
UACC-62 melanoma = system: UACC-62 melanoma

SMILES | TGI (HT29 colon) [µM] | TGI (MDA-MB-231 breast) [µM] | TGI (A498 renal) [µM] | TGI (OVCAR-3 ovarian) [µM] | TGI (HOP-92 NSCLC) [µM] | TGI (786-0 renal) [µM] | TGI (SF-539 CNS) [µM] | TGI (HCC-2998 colon) [µM] | TGI (MDA-N) [µM] | TGI (HL-60(TB) leukemia) [µM] | TGI (UO-31 renal) [µM] | TGI (NCI-H522 lung) [µM] | TGI (PC-3 prostate) [µM] | TGI (SF-268 CNS) [µM] | TGI (UACC-62 melanoma) [µM]
CN(NC(=O)c1cccs1)C1=NCCCCN1 | > 100 | > 100 | > 100 | > 100 | > 100 | > 100 | > 100 | > 100 | > 100 | > 100 | > 100 | > 100 | > 100 | > 100 | > 100
CN(C)S(=O)(=O)/N=C/c1cccc(/C=N/S(=O)(=O)N(C)C)c1 |  | > 100 | > 100 | > 100 | > 100 | > 100 | > 100 | > 100 | > 100 | > 100 | > 100 |  | > 100 | > 100 | > 100
Clc1cc(Cl)cc(C2ON=C(c3ccccc3)N2C23CC4CC(CC(C4)C2)C3)c1 (stereo not drawn) | > 10 | > 10 | > 10 | > 10 | > 10 | > 10 | > 10 | > 10 | > 10 |  | > 10 | > 10 | > 10 | > 10 | > 10
CC(=O)NC(CCC(=O)C=[N+]=N)C(=O)O (stereo not drawn) | > 100 | > 100 | > 100 | > 100 | > 100 | > 100 | > 100 | > 100 | > 100 | > 100 | > 100 | > 100 | > 100 | > 100 | > 100
COCCCNC(=O)C1=C(C)NC(C)=C(C(=O)NCCCOC)C1 | > 100 | > 100 | > 100 | > 100 | > 100 | > 100 | > 100 | > 100 | > 100 | > 100 | > 100 | 27.4 | > 100 | > 100 | > 100
CNC(=O)N(CCC#N)CCCN(C(=O)NC)c1ccccc1 | > 100 | > 100 |  | > 100 | > 100 | > 100 | > 100 | > 100 | > 100 | > 100 | > 100 | > 100 | > 100 |  | > 100
c1ccc(CNCCCCNCCCNCc2ccccc2)cc1 | 31 | 33.2 |  | 54.7 | 25.3 | 31.4 |  | 31.3 | 26.3 |  | 52.4 | 31 | 28.8 | 51.8 | 32.4
COC(=O)[C@@H]1CN(C(C)=O)C(=O)N1C(=O)OCc1ccccc1 | > 100 | > 100 | > 100 | > 100 | > 100 | > 100 | > 100 | > 100 | > 100 | > 100 | > 100 | > 100 | > 100 | > 100 | 
O=c1oc2ccccc2c(O)c1/C=N/C(=S)NCCc1ccccc1 | > 100 | > 100 |  | > 100 | > 74.7 | > 100 | > 71.1 | > 100 | > 100 | 5.38 | > 74.6 | 87.4 | > 100 | > 100 | 99.4
CCOC(=O)CSc1nnc2cc(CN3CCCC3)c(-c3ccc(Cl)cc3)nn12 | > 100 | > 100 | > 100 | > 100 | > 100 | > 100 | > 100 |  | > 100 | > 100 | > 100 | > 100 | > 100 | > 100 | > 100
O=S(=O)(O)c1ccc(N=Nc2c(O)ccc3cc(Br)ccc23)cc1 | > 100 | > 100 | > 100 | > 100 | > 100 | > 100 |  |  | > 100 |  | > 100 | > 100 | > 100 | > 100 | > 100
CCOc1ccc(N/C(Cl)=C(Cl)\C(=C(\Nc2ccc(OCC)cc2)n2nnc3ccccc32)[N+](=O)[O-])cc1 | 3.46 | 15.6 | 39 | 20.3 | 5.56 | 14.2 | 11.1 | 46.6 | 13.2 |  | 23.9 | 2.86 | 21.6 | 32.1 | 34.6
c1ccc(-n2nc3ccc4nonc4c3n2)cc1 | > 100 | > 100 |  | > 100 | > 100 | > 100 | > 100 | > 100 | > 100 | > 100 |  |  | > 100 | > 100 | > 100
NC(=S)N/N=C1\NC(=O)/C(=C/c2ccc3c(c2)OCO3)S1 | 82.9 | 77.1 | 30.3 | 45.7 | 56.7 | > 100 | > 100 | > 100 | 97.9 | 63.3 | > 100 |  |  | 97.3 | 
CC(=O)Oc1ccccc1/C=C/C(=O)/C=C/c1ccccc1OC(C)=O | 4.25 | 6.08 | 4.01 | 4.23 | 10.7 | 3.71 | 3.33 | 4.18 | 6.67 |  | 3.48 | 4.69 | 5.04 | 8.17 | 3.48
O=C(Nc1ccccc1)N(C1=NCC(CI)S1)c1ccc(F)cc1F (stereo not drawn) | > 100 | 78.4 |  | > 100 | 51.1 | > 100 | > 100 | > 100 | > 100 | 48 | > 100 | > 100 | > 100 | > 100 | > 100

SMILES | TGI (HT29 colon) [µM] | TGI (MDA-MB-231 breast) [µM] | TGI (A498 renal) [µM] | TGI (OVCAR-3 ovarian) [µM] | TGI (HOP-92 NSCLC) [µM] | TGI (786-0 renal) [µM] | TGI (SF-539 CNS) [µM] | TGI (HCC-2998 colon) [µM] | TGI (MDA-N) [µM] | TGI (HL-60(TB) leukemia) [µM] | TGI (UO-31 renal) [µM] | TGI (NCI-H522 lung) [µM] | TGI (PC-3 prostate) [µM] | TGI (SF-268 CNS) [µM] | TGI (UACC-62 melanoma) [µM]
Cc1nc(N/N=C/c2ccccc2Cl)[nH]c(=O)c1CCO | > 100 | > 100 |  | 46.5 | 57.3 | > 100 | > 100 | > 100 | > 100 | > 100 | > 100 | 34.4 | > 100 | > 100 | > 100
Cc1ccc(S(=O)(=O)N2CCSCCN(S(=O)(=O)c3ccc(C)cc3)CCN(S(=O)(=O)c3ccc(C)cc3)CC2)cc1 | > 100 | 59.5 | > 100 | > 100 | 9.06 | 73.9 | 56.8 | > 100 | > 100 | > 100 | > 100 |  |  | > 100 | > 100
CCN(CC)c1ccc2cc(C(=O)Nc3ccccc3)c(=N)oc2c1 | > 100 | > 100 |  |  | > 100 | > 100 | > 100 | > 100 | > 100 | > 100 | > 100 |  | > 100 | > 100 | > 100
COc1ccc2cc(C(=O)O)ccc2c1OC | > 100 | > 100 | > 100 | > 100 |  | > 100 | > 100 | > 100 | > 100 | > 100 | > 100 | > 100 | > 100 | > 100 | > 100
C=C(C)[C@H]1C=C[C@@H](OC(=O)c2cccnc2)[C@@]23CO[C@@](C)([C@H](OC(=O)c4cccnc4)[C@@]4(OC(C)=O)C[C@H](C)[C@H](OCCC)[C@@H]4[C@H]2OC(C)=O)[C@H]13 |  | > 15 | > 15 | > 15 | > 15 | > 15 | > 15 | > 15 | > 15 | 14.1 | > 15 | > 15 | > 15 | > 15 | > 15
O=c1[nH]nc(Cc2ccccc2)n1/N=C\c1ccccc1 | > 100 | > 100 | > 100 | > 100 | > 100 | > 100 | > 100 | > 100 | > 100 | > 100 | > 100 | > 100 | > 100 |  | > 100
CC(C)(C)Nc1noc(=O)n1C(C)(C)C | > 100 | > 100 | > 100 | > 100 | > 100 | > 100 | > 100 |  | > 100 | > 100 | > 100 | > 100 | > 100 | > 100 | > 100
O=C1NC(=O)C2(CCCCCC2)N1 | > 100 | > 100 | > 100 | > 100 | > 100 | > 100 | > 100 |  | > 100 |  | > 100 | > 100 | > 100 | > 100 | > 100
CCc1n[nH]c(=O)n1/N=C/c1ccc(C)cc1 | > 100 | > 100 | > 100 | > 100 | > 100 | > 100 | > 100 | > 100 | > 100 | > 100 | > 100 | > 100 |  | > 100 | > 100
Cc1nc2c(=O)n(-c3ccccc3)c3ccccc3c2o1 | > 100 | > 100 | > 100 | > 100 | > 100 | > 100 | > 100 | > 100 | > 100 | > 100 | > 100 |  | > 100 | > 100 | > 100
CC(NC(=O)c1ccccc1)NC(=O)C(C)C(=O)Nc1ccccc1 (stereo not drawn) | > 100 | > 100 |  |  | > 100 | > 100 | > 100 |  | > 100 | > 100 | > 100 | > 100 | > 100 | > 100 | > 100
COC(=O)c1c(O)ccc2c1c1c(n2Cc2ccc(Cl)cc2Cl)C(=O)c2ccccc2C1=O | 32.1 | 23.5 | 33.7 | 27.2 | 25.1 | 22.9 | 27.7 | 9.33 | 29.5 | 34.2 | 22.8 | 22 | 21.3 | 24.6 | 
C=CCSC1=N/C(=C\c2cccs2)C(=O)N1CC=C | > 100 | > 100 | 95.3 | > 100 | 57 | > 100 | > 100 | > 100 | > 100 |  | > 100 | > 100 | > 100 | > 100 | > 100
CCN(CC)CCNC(=O)c1cc2cc(NC(=O)c3cc4cc(NC(=O)c5cc6cc(N)ccc6[nH]5)ccc4[nH]3)ccc2[nH]1 | > 100 | > 100 | > 100 | > 100 | > 100 | > 100 |  | > 100 | > 100 |  | > 100 | > 100 | > 100 | > 100 | > 100
COc1ccc(OCc2ccc3nc(-c4ccccc4)c(Cl)nc3c2)cc1 | > 100 | 37.9 | 81.2 | > 100 | 46.7 | 32.6 | 42.3 | > 100 | > 100 | 45.9 | > 100 | 40.5 | > 100 | > 100 | 
CC1CC[C@@]2(OC1)OC1CC3C4CCC5C[C@@H](OC6OC(CO)C(OC7OC(CO)C(O)C(OC8OC(CO)C(O)C(OC9OC(CO)C(O)C(O)C9O)C8O)C7OC7OC(CO)C(O)C(O)C7O)C(O)C6O)[C@H](O)C[C@]5(C)C4CC[C@]3(C)C1[C@@H]2C (stereo partly drawn) | > 80.5 | > 80.5 | > 80.5 | > 80.5 | > 80.5 | > 80.5 | > 80.5 | > 80.5 | > 80.5 | > 80.5 |  |  | > 80.5 | > 80.5 | > 80.5
